Legend:
Assay type in all cases: in vivo
[1] = tested on: yellow nutsedge (Cyperus esculentus); test: Test B preemergence, yellow nutsedge; settings: scale 0 to 100
Text: (§1) Seeds of plant species selected from blackgrass (Alopecurus myosuroides), downy bromegrass (Bromus tectorum), green foxtail (Setaria viridis), Italian ryegrass (Lolium multiflorum), wheat (Triticum aestivum), wild oat (Avena fatua), catchweed bedstraw (Galium aparine), bermudagrass (Cynodon dactylon), Surinam grass (Brachiaria decumbens), cocklebur (Xanthium strumarium), corn (Zea mays), large crabgrass (Digitaria sanguinalis), woolly cupgrass (Eriochloa villosa), giant foxtail (Setaria faberii), goosegrass (Eleusine indica), johnsongrass (Sorghum halepense), kochia (Kochia scoparia), lambsquarters (Chenopodium album), morningglory (Ipomoea coccinea), nightshade (eastern black nightshade, Solanum ptycanthum), yellow nutsedge (Cyperus esculentus), pigweed (Amaranthus retroflexus), ragweed (common ragweed, Ambrosia elatior), soybean (Glycine max), sunflower (common oilseed sunflower, Helianthus annuus), Russian thistle (Salsola kali), and velvetleaf (Abutilon theophrasti) were planted into a blend of loam soil and sand and treated preemergence with test compounds formulated in a non-phytotoxic solvent mixture which included a surfactant. Treated plants and controls were maintained in a greenhouse for 13 to 15 days, after which time all species were compared to controls and visually evaluated. Plant response ratings, summarized in Table B, are based on a scale of 0 to 100 where 0 is no effect and 100 is complete control. A dash (-) response means no test result.

[2] = tested on: catchweed bedstraw (Galium aparine); test: Test B preemergence, catchweed bedstraw; settings: scale 0 to 100
Text: as §1

[3] = tested on: bermudagrass (Cynodon dactylon); test: Test B preemergence, bermudagrass; settings: scale 0 to 100
Text: as §1

[4] = tested on: corn (Zea mays); test: Test A preemergence, corn; settings: 0 to 100 scale (0 no effect, 100 complete control)
Outline: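 Each compound, in a non-phytotoxic solvent mixture with surfactant, is applied to soil at planting and, concurrently, to young one- to two-leaf plants. After approximately ten greenhouse days, visual response is rated 0 (no effect) to 100 (complete control) against untreated controls.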

[5] = tested on: velvetleaf (Abutilon theophrasti); test: Test B preemergence, velvetleaf; settings: Preemergence, scale 0 to 100
Text: as §1

[6] = tested on: green foxtail (Setaria viridis); test: Test B preemergence, green foxtail; settings: scale 0 to 100
Text: as §1

[7] = tested on: blackgrass (Alopecurus myosuroides); test: Test B preemergence, blackgrass; settings: scale 0 to 100
Text: as §1

[8] = tested on: Russian thistle (Salsola kali); test: Test B preemergence, Russian thistle; settings: scale 0 to 100
Text: as §1

[9] = tested on: kochia (Kochia scoparia); test: Test B preemergence, kochia; settings: scale 0 to 100
Text: as §1

SMILES	Plant response rating, Nutsedge, Yellow ([1]; 16 g ai/ha)	Plant response rating, Nutsedge, Yellow ([1]; 31 g ai/ha)	Plant response rating, Nutsedge, Yellow ([1]; 62 g ai/ha)	Plant response rating, Nutsedge, Yellow ([1]; 125 g ai/ha)	Plant response rating, Galium ([2]; 16 g ai/ha)	Plant response rating, Galium ([2]; 31 g ai/ha)	Plant response rating, Galium ([2]; 62 g ai/ha)	Plant response rating, Galium ([2]; 125 g ai/ha)	Plant response rating, Bermudagrass ([3]; 16 g ai/ha)	Plant response rating, Corn ([4]; 125 g ai/ha)	Plant response rating, Corn ([4]; 500 g ai/ha)	Plant response rating, Velvetleaf ([5]; 16 g ai/ha)	Plant response rating, Velvetleaf ([5]; 31 g ai/ha)	Plant response rating, Velvetleaf ([5]; 62 g ai/ha)	Plant response rating, Foxtail, Green ([6]; 16 g ai/ha)	Plant response rating, Foxtail, Green ([6]; 31 g ai/ha)	Plant response rating, Foxtail, Green ([6]; 62 g ai/ha)	Plant response rating, Blackgrass ([7]; 16 g ai/ha)	Plant response rating, Blackgrass ([7]; 31 g ai/ha)	Plant response rating, Blackgrass ([7]; 62 g ai/ha)	further results
CC1(C)CC(S(=O)(=O)Cc2c(C(F)(F)F)nc3n(c2=O)CCC3)=NO1 [Compound 11, 3-[[(4,5-dihydro-5,5-dimethyl-3-isoxazolyl)sulfonyl]methyl]-7,8-dihydro-2-(trifluoromethyl)pyrrolo[1,2-α]pyrimidin-4(6H)-one]	0	0	0	0	0	0	95	98	65	0	0	0	0	0	20	70	100	0	70	70	Plant response rating, Bermudagrass ([3]; 31 g ai/ha): 100; Plant response rating, Bermudagrass ([3]; 62 g ai/ha): 100; Plant response rating, Bermudagrass ([3]; 125 g ai/ha): 100; Plant response rating, Velvetleaf ([5]; 125 g ai/ha): 65; Plant response rating, Foxtail, Green ([6]; 125 g ai/ha): 100; Plant response rating, Blackgrass ([7]; 125 g ai/ha): 100
CC1(C)CC(S(=O)(=O)Cc2c(C(F)(F)C(F)(F)F)nc3n(c2=O)CCC3)=NO1 [Compound 22]	0	10	60	80	0	0	0	0	98	0	0	0	0	60	50	70	100	0	40	40	Plant response rating, Bermudagrass ([3]; 31 g ai/ha): 100; Plant response rating, Bermudagrass ([3]; 62 g ai/ha): 100; Plant response rating, Bermudagrass ([3]; 125 g ai/ha): 100; Plant response rating, Russian Thistle ([8]; 31 g ai/ha): 0; Plant response rating, Russian Thistle ([8]; 62 g ai/ha): 30; Plant response rating, Russian Thistle ([8]; 125 g ai/ha): 60; Plant response rating, Velvetleaf ([5]; 125 g ai/ha): 100; Plant response rating, Foxtail, Green ([6]; 125 g ai/ha): 100; Plant response rating, Kochia ([9]; 16 g ai/ha): 0; Plant response rating, Kochia ([9]; 31 g ai/ha): 0; Plant response rating, Kochia ([9]; 62 g ai/ha): 0; Plant response rating, Kochia ([9]; 125 g ai/ha): 70; Plant response rating, Blackgrass ([7]; 125 g ai/ha): 98
CC1(C)CC(S(=O)(=O)Cc2c(C(F)(F)F)nc3n(c2=O)CCO3)=NO1 [Compound 2, 6-[[(4,5-dihydro-5,5-dimethyl-3-isoxazolyl)sulfonyl]methyl]-2,3-dihydro-7-(trifluoromethyl)-5H-oxazolo[3,2-α]pyrimidin-5-one]	0	0	0	–	100	100	100	–	0	0	50	0	0	0	10	55	85	0	0	50	Plant response rating, Nutsedge, Yellow ([1]; 8 g ai/ha): 0; Plant response rating, Galium ([2]; 8 g ai/ha): 0; Plant response rating, Bermudagrass ([3]; 8 g ai/ha): 0; Plant response rating, Bermudagrass ([3]; 31 g ai/ha): 75; Plant response rating, Bermudagrass ([3]; 62 g ai/ha): 85; Plant response rating, Russian Thistle ([8]; 8 g ai/ha): 0; Plant response rating, Russian Thistle ([8]; 16 g ai/ha): 0; Plant response rating, Russian Thistle ([8]; 31 g ai/ha): 0; Plant response rating, Russian Thistle ([8]; 62 g ai/ha): 0; Plant response rating, Foxtail, Green ([6]; 8 g ai/ha): 0; Plant response rating, Kochia ([9]; 8 g ai/ha): 0; Plant response rating, Kochia ([9]; 16 g ai/ha): 0; Plant response rating, Kochia ([9]; 31 g ai/ha): 75; Plant response rating, Kochia ([9]; 62 g ai/ha): 70; Plant response rating, Blackgrass ([7]; 8 g ai/ha): 0
CC1(C)CC(S(=O)(=O)Cc2c(C(F)(F)F)nc3ccsn3c2=O)=NO1 [Compound 16]	0	0	0	0	0	0	0	70	–	0	0	0	0	0	0	20	85	10	85	90	Plant response rating, Velvetleaf ([5]; 125 g ai/ha): 0; Plant response rating, Foxtail, Green ([6]; 125 g ai/ha): 98; Plant response rating, Kochia ([9]; 16 g ai/ha): 0; Plant response rating, Kochia ([9]; 31 g ai/ha): 0; Plant response rating, Kochia ([9]; 62 g ai/ha): 0; Plant response rating, Kochia ([9]; 125 g ai/ha): 0; Plant response rating, Blackgrass ([7]; 125 g ai/ha): 100
CC1(C)CC(S(=O)(=O)Cc2c(C(F)(F)C(F)(F)F)nc3n(c2=O)CCCC3)=NO1 [Compound 21]	0	20	60	90	0	0	30	50	90	0	0	0	0	0	0	45	100	40	40	50	Plant response rating, Bermudagrass ([3]; 31 g ai/ha): 100; Plant response rating, Bermudagrass ([3]; 62 g ai/ha): 100; Plant response rating, Bermudagrass ([3]; 125 g ai/ha): 100; Plant response rating, Russian Thistle ([8]; 16 g ai/ha): 0; Plant response rating, Russian Thistle ([8]; 31 g ai/ha): 60; Plant response rating, Russian Thistle ([8]; 62 g ai/ha): 65; Plant response rating, Russian Thistle ([8]; 125 g ai/ha): 85; Plant response rating, Velvetleaf ([5]; 125 g ai/ha): 75; Plant response rating, Foxtail, Green ([6]; 125 g ai/ha): 100; Plant response rating, Kochia ([9]; 16 g ai/ha): 0; Plant response rating, Kochia ([9]; 62 g ai/ha): 60; Plant response rating, Kochia ([9]; 125 g ai/ha): 80; Plant response rating, Blackgrass ([7]; 125 g ai/ha): 98
CC1(C)CC(S(=O)(=O)Cc2c(C(F)(F)Cl)nc3n(c2=O)CCC3)=NO1 [Compound 18]	0	0	20	45	–	–	0	0	0	0	0	0	0	0	30	80	98	0	0	10	Plant response rating, Bermudagrass ([3]; 31 g ai/ha): 98; Plant response rating, Bermudagrass ([3]; 62 g ai/ha): 100; Plant response rating, Bermudagrass ([3]; 125 g ai/ha): 100; Plant response rating, Velvetleaf ([5]; 125 g ai/ha): 0; Plant response rating, Foxtail, Green ([6]; 125 g ai/ha): 98; Plant response rating, Kochia ([9]; 16 g ai/ha): 0; Plant response rating, Kochia ([9]; 31 g ai/ha): 0; Plant response rating, Kochia ([9]; 62 g ai/ha): 55; Plant response rating, Kochia ([9]; 125 g ai/ha): 100; Plant response rating, Blackgrass ([7]; 125 g ai/ha): 98

Source: patent publication US20100099561A1, “HETEROBICYCLIC ALKYLTHIO-BRIDGED ISOXAZOLINES” (E.I. DU PONT DE NEMOURS AND COMPANY, priority 2008, published 2010)
